Columns and labels:
M. avium AIIMS = assay: MIC against MAC strains, agar dilution; assay type: cell-based, Mycobacterium avium; settings: S. No. 04 Ma-4, M. avium AIIMS; Middle Brook 7H10 + OADC, 37° C., 14-21 days
M. tuberculosis SGPGI [1] = assay: MIC against M. tuberculosis strains, agar dilution; assay type: cell-based, Mycobacterium tuberculosis; settings: S. No. 07 Mt-, Middle Brook 7H10 + OADC, 37° C., 14-21 days
[2] = system: M. avium intracellulare 559/97; assay: MIC against MAC strains, agar dilution; assay type: cell-based; settings: S. No. 15 Mai-7, M. avium intracellulare 559/97; Middle Brook 7H10 + OADC, 37° C., 14-21 days
M. tuberculosis PC [3] = assay: MIC against M. tuberculosis strains, agar dilution; assay type: cell-based, Mycobacterium tuberculosis; settings: S. No. 20 Mt-, Middle Brook 7H10 + OADC, 37° C., 14-21 days
M. tuberculosis SGPGI [4] = assay: MIC against M. tuberculosis strains, agar dilution; assay type: cell-based, Mycobacterium tuberculosis; settings: S. No. 05 Mt-, Middle Brook 7H10 + OADC, 37° C., 14-21 days
M. intracellulare B-78/3 = assay: MIC against MAC strains, agar dilution; assay type: cell-based; settings: S. No. 09 Mi-4, M. intracellulare B-78/3; Middle Brook 7H10 + OADC, 37° C., 14-21 days
[5] = system: M. avium intracellulare 356/97; assay: MIC against MAC strains, agar dilution; assay type: cell-based; settings: S. No. 10 Mai-1, M. avium intracellulare 356/97; Middle Brook 7H10 + OADC, 37° C., 14-21 days
M. tuberculosis PC 4782 = assay: MIC against M. tuberculosis strains, agar dilution; assay type: cell-based, Mycobacterium tuberculosis; settings: S. No. 21 Mt-, Middle Brook 7H10 + OADC, 37° C., 14-21 days
M. tuberculosis PC [6] = assay: MIC against M. tuberculosis strains, agar dilution; assay type: cell-based, Mycobacterium tuberculosis; settings: S. No. 19 Mt-, Middle Brook 7H10 + OADC, 37° C., 14-21 days
M. tuberculosis ATCC = assay: MIC against M. tuberculosis strains, agar dilution; assay type: cell-based, Mycobacterium tuberculosis; settings: S. No. 01.Mt-, Middle Brook 7H10 + OADC, 37° C., 14-21 days
M. tuberculosis SGPGI [7] = assay: MIC against M. tuberculosis strains, agar dilution; assay type: cell-based, Mycobacterium tuberculosis; settings: S. No. 06 Mt-, Middle Brook 7H10 + OADC, 37° C., 14-21 days
M. tuberculosis 50 = assay: MIC against M. tuberculosis strains, agar dilution; assay type: cell-based, Mycobacterium tuberculosis; settings: S. No. 12 Mt-, Middle Brook 7H10 + OADC, 37° C., 14-21 days
M. tuberculosis M-149 = assay: MIC against M. tuberculosis strains, agar dilution; assay type: cell-based, Mycobacterium tuberculosis; settings: S. No. 15 Mt-, Middle Brook 7H10 + OADC, 37° C., 14-21 days
M avium ATCC 25291 = assay: MIC against MAC strains, agar dilution; assay type: cell-based, Mycobacterium avium; settings: S. No. 02 Ma-2, M avium ATCC 25291; Middle Brook 7H10 + OADC, 37° C., 14-21 days
M. tuberculosis V-3093 = assay: MIC against M. tuberculosis strains, agar dilution; assay type: cell-based, Mycobacterium tuberculosis; settings: S. No. 14 Mt-, Middle Brook 7H10 + OADC, 37° C., 14-21 days
[8] = system: M. intracellulare ATCC 13950; assay: MIC against MAC strains, agar dilution; assay type: cell-based; settings: S. No. 06 Mi-1, M. intracellulare ATCC 13950; Middle Brook 7H10 + OADC, 37° C., 14-21 days
M avium ATCC 700897 = assay: MIC against MAC strains, agar dilution; assay type: cell-based, Mycobacterium avium; settings: S. No. 05 Ma-6, M avium ATCC 700897; Middle Brook 7H10 + OADC, 37° C., 14-21 days
M. tuberculosis M-66 = assay: MIC against M. tuberculosis strains, agar dilution; assay type: cell-based, Mycobacterium tuberculosis; settings: S. No. 08 Mt-, Middle Brook 7H10 + OADC, 37° C., 14-21 days
M. tuberculosis M-168 = assay: MIC against M. tuberculosis strains, agar dilution; assay type: cell-based, Mycobacterium tuberculosis; settings: S. No. 09 Mt-, Middle Brook 7H10 + OADC, 37° C., 14-21 days

NNC(=O)c1ccncc1 [INH]
MIC (M. avium AIIMS): >32 µg/mL
MIC (M. tuberculosis SGPGI [1]): >32 µg/mL
MIC [2]: >32 µg/mL
MIC (M. tuberculosis PC [3]): 16 µg/mL
MIC (M. tuberculosis SGPGI [4]): 1.0 µg/mL
MIC (M. intracellulare B-78/3): 16 µg/mL
MIC [5]: 4.0 µg/mL
MIC (M. tuberculosis PC 4782): 0.25 µg/mL
MIC (M. tuberculosis PC [6]): 0.25 µg/mL
MIC (M. tuberculosis ATCC): 0.125 µg/mL
MIC (M. tuberculosis SGPGI [7]): 16 µg/mL
MIC (M. tuberculosis 50): >32 µg/mL
MIC (M. tuberculosis M-149): 8.0 µg/mL
MIC (M avium ATCC 25291): >32 µg/mL
MIC (M. tuberculosis V-3093): 0.06 µg/mL
MIC [8]: >32 µg/mL
MIC (M avium ATCC 700897): 4.0 µg/mL
MIC (M. tuberculosis M-66): >32 µg/mL
MIC (M. tuberculosis M-168): 4.0 µg/mL

CO[C@H]1/C=C/O[C@@]2(C)Oc3c(C)c(O)c4c(O)c(c(/C=N/N5CCN(C)CC5)c(O)c4c3C2=O)NC(=O)/C(C)=C\C=C\[C@H](C)[C@H](O)[C@@H](C)[C@@H](O)[C@@H](C)[C@H](OC(C)=O)[C@@H]1C [RIF]
MIC (M. avium AIIMS): 4.0 µg/mL
MIC (M. tuberculosis SGPGI [1]): >32 µg/mL
MIC [2]: >32 µg/mL
MIC (M. tuberculosis PC [3]): 2.0 µg/mL
MIC (M. tuberculosis SGPGI [4]): 16 µg/mL
MIC (M. intracellulare B-78/3): 0.25 µg/mL
MIC [5]: 0.5 µg/mL
MIC (M. tuberculosis PC 4782): 0.06 µg/mL
MIC (M. tuberculosis PC [6]): 0.06 µg/mL
MIC (M. tuberculosis ATCC): 0.25 µg/mL
MIC (M. tuberculosis SGPGI [7]): >32 µg/mL
MIC (M. tuberculosis 50): >32 µg/mL
MIC (M. tuberculosis M-149): >32 µg/mL
MIC (M avium ATCC 25291): >32 µg/mL
MIC [8]: 4.0 µg/mL
MIC (M avium ATCC 700897): 1.0 µg/mL
MIC (M. tuberculosis M-66): >32 µg/mL
MIC (M. tuberculosis M-168): 16 µg/mL

C[C@@H]1CN(c2c(F)c(N)c3c(=O)c(C(=O)O)cn(C4CC4)c3c2F)C[C@H](C)N1 [SPAR]
MIC (M. avium AIIMS): 8.0 µg/mL
MIC (M. tuberculosis SGPGI [1]): 4.0 µg/mL
MIC [2]: 2.0 µg/mL
MIC (M. tuberculosis PC [3]): 8.0 µg/mL
MIC (M. tuberculosis SGPGI [4]): 0.25 µg/mL
MIC (M. intracellulare B-78/3): 2.0 µg/mL
MIC [5]: 2.0 µg/mL
MIC (M. tuberculosis PC 4782): ≦0.125 μg/ml
MIC (M. tuberculosis PC [6]): ≦0.125 μg/ml
MIC (M. tuberculosis ATCC): ≦0.125 μg/ml
MIC (M. tuberculosis SGPGI [7]): 4.0 µg/mL
MIC (M. tuberculosis 50): 4.0 µg/mL
MIC (M. tuberculosis M-149): 2.0 µg/mL
MIC (M avium ATCC 25291): 32 µg/mL
MIC (M. tuberculosis V-3093): ≦0.125 μg/ml
MIC [8]: 16 µg/mL
MIC (M avium ATCC 700897): 2.0 µg/mL
MIC (M. tuberculosis M-66): 32 µg/mL
MIC (M. tuberculosis M-168): 2.0 µg/mL

CCc1cc(C(N)=S)ccn1 [ETH]
MIC (M. avium AIIMS): 16 µg/mL
MIC (M. tuberculosis SGPGI [1]): >32 µg/mL
MIC [2]: >32 µg/mL
MIC (M. tuberculosis PC [3]): 16 µg/mL
MIC (M. tuberculosis SGPGI [4]): 4.0 µg/mL
MIC (M. intracellulare B-78/3): 4.0 µg/mL
MIC [5]: 8.0 µg/mL
MIC (M. tuberculosis PC 4782): 1.0 µg/mL
MIC (M. tuberculosis PC [6]): 1.0 µg/mL
MIC (M. tuberculosis ATCC): 2.0 µg/mL
MIC (M. tuberculosis SGPGI [7]): >32 µg/mL
MIC (M. tuberculosis 50): 32 µg/mL
MIC (M. tuberculosis M-149): >32 µg/mL
MIC (M avium ATCC 25291): 32 µg/mL
MIC (M. tuberculosis V-3093): 2.0 µg/mL
MIC [8]: 0.5 µg/mL
MIC (M avium ATCC 700897): >32 µg/mL
MIC (M. tuberculosis M-66): >32 µg/mL
MIC (M. tuberculosis M-168): >32 µg/mL

CC[C@H]1OC(=O)[C@H](C)[C@@H](O[C@H]2C[C@@](C)(OC)[C@@H](O)[C@H](C)O2)[C@H](C)[C@@H](O[C@@H]2O[C@H](C)C[C@H](N(C)C)[C@H]2O)[C@](C)(OC)C[C@@H](C)C(=O)[C@H](C)[C@@H](O)[C@]1(C)O [CLA]
MIC (M. avium AIIMS): 1.0 µg/mL
MIC (M. tuberculosis SGPGI [1]): 16 µg/mL
MIC [2]: 32 µg/mL
MIC (M. tuberculosis PC [3]): 4.0 µg/mL
MIC (M. tuberculosis SGPGI [4]): 8.0 µg/mL
MIC (M. intracellulare B-78/3): 1.0 µg/mL
MIC [5]: 2.0 µg/mL
MIC (M. tuberculosis PC 4782): 16 µg/mL
MIC (M. tuberculosis PC [6]): 8.0 µg/mL
MIC (M. tuberculosis ATCC): 32 µg/mL
MIC (M. tuberculosis SGPGI [7]): 32 µg/mL
MIC (M. tuberculosis 50): 16 µg/mL
MIC (M. tuberculosis M-149): 16 µg/mL
MIC (M avium ATCC 25291): 8.0 µg/mL
MIC (M. tuberculosis V-3093): 16 µg/mL
MIC [8]: 2.0 µg/mL
MIC (M avium ATCC 700897): 2.0 µg/mL
MIC (M. tuberculosis M-66): 16 µg/mL
MIC (M. tuberculosis M-168): 8.0 µg/mL

— patent US20060293307A1, “Oxazolidinone derivatives as antimicrobials” (priority 2002, published 2006)
